Test results published in patent publication EP0211490B1, “Antibiotics of the vancomycin-class” (SMITHKLINE BEECHAM CORPORATION, priority 1985, dated 1987).
Bridge positions count the residues as written; N and C are the ends. Square brackets hold non-standard residues; d marks the D form. Peptide text beside a SMILES is read from it. * marks the point of attachment. Ileψ(thiazoline)Cys = CC[C@H](C)[C@H](N)C1=N[C@H](C(=O)*)CS1; dOrn = NCCC[C@@H](N)C(=O)O

Each molecule was assayed on Staph. aureus HH 127 (assay: in vivo activity against intraperitoneal infection in mice (ED50)). Details: Staphylococcus aureus, HH127, read-out: ED₅₀.
Protocol: The ED₅₀'s were as follows: AAD 216 aglycone, 7.6 mg/kg; AAD 216 pseudo- aglycone, 7.6 mg/kg; AAD 216A pseudoaglycone, 5.0 mg./kg; vancomycin, 1.56 mg/kg. Similarly, the ED₅₀'s of AAD 216A pseudoaglycone, AAD 216B pseudoaglycone, AAD 216C pseudoaglycone and vancomycin, determined by utilizing a similar protocol, were 12.5 mg/kg, 7.6 mg/kg, 10.8 mg/kg and 1.92 mg/kg, respectively.
For `CNC1C(=O)NC2C(=O)NC(C(=O)NC3C(=O)NC4C(=O)NC(C(=O)NC(C(=O)O)c5cc(O)cc(O)c5-c5cc4ccc5O)C(O)c4cc(Cl)c(c(Cl)c4)Oc4cc3cc(c4O)Oc3ccc(cc3Cl)C2O)c2cc(cc(O)c2Cl)Oc2cc1ccc2O` (stereo not shown) [AAD 216 aglycone], the ED50 was 7.6 mg/kg.

What follows are molecules tested on K. aridum (assay: susceptibility of K. aridum to antibiotic disks (diffusion method)). Details: BBL susceptibility disks, content per antibiotic; one week at 28°C.
Format: cell-based, Kibdelosporangium aridum
Protocol: Susceptibility of K. aridum to antibiotics was examined by placing BBL susceptibility disks on nutrient agar plates seeded with K. aridum as an overlay. Diameters of the zones of inhibition were measured after incubation for one week at 28°C.
Susceptibility to Antibiotics. By the diffusion method, K. aridum was resistant to disks impregnated with gentamicin (10 µg), tobramycin (10 µg), streptomycin (10 µg), vancomycin (30 µg), penicillin (10 units), bacitracin (2 units), lincomycin (2 µg), clindamycin (2 µg), and cephalothin (30 µg). Chlortetracycline (5 µg) produced 18 mm zones of inhibition; tetracycline (5 µg) 11-12 mm zones; rifampin (5 µg) 11-15 mm zones; novobiocin (5 µg) 27-28 mm zones. All zones of inhibition contained at least a few resistant colonies.
`CC[C@H](C)[C@H](N)C1=N[C@H](C(=O)N[C@@H](CC(C)C)C(=O)N[C@H](CCC(=O)O)C(=O)N[C@H](C(=O)N[C@H]2CCCCNC(=O)[C@H](CC(N)=O)NC(=O)[C@@H](CC(=O)O)NC(=O)[C@H](Cc3cnc[nH]3)NC(=O)[C@@H](Cc3ccccc3)NC(=O)[C@H]([C@@H](C)CC)NC(=O)[C@@H](CCCN)NC2=O)[C@@H](C)CC)CS1` [bacitracin] ({Ileψ(thiazoline)Cys}-L[dE]IK[dOrn]I[dF]H[dD]N; lactam 4-C) was tested, and the “susceptibility by the diffusion method (in words)” value (“susceptibility” below) was “resistant”.
With `CC(=O)OCC1=C(C(=O)O)N2C(=O)[C@@H](NC(=O)Cc3cccs3)[C@H]2SC1` [cephalothin] the “susceptibility” value was “resistant”.
`CCC[C@@H]1C[C@@H](C(=O)N[C@@H]([C@H]2O[C@H](SC)[C@H](O)[C@@H](O)[C@H]2O)[C@@H](C)O)N(C)C1` [lincomycin] was tested, and the “susceptibility” value was “resistant”.
In the case of `[H]/N=C(/N)N[C@H]1[C@H](O)[C@@H](O)[C@H](O[C@@H]2O[C@@H](C)[C@](O)(C=O)[C@H]2O[C@@H]2O[C@@H](CO)[C@H](O)[C@@H](O)[C@@H]2NC)[C@@H](N/C(N)=N\[H])[C@@H]1O` [streptomycin], the “susceptibility” value was “resistant”.
With `NC[C@H]1O[C@H](O[C@H]2[C@H](O)[C@@H](O[C@H]3O[C@H](CO)[C@@H](O)[C@H](N)[C@H]3O)[C@H](N)C[C@@H]2N)[C@H](N)C[C@@H]1O` [tobramycin] the “susceptibility” value was “resistant”.
With `CN[C@H](CC(C)C)C(=O)N[C@H]1C(=O)N[C@@H](CC(N)=O)C(=O)N[C@H]2C(=O)N[C@H]3C(=O)N[C@H](C(=O)N[C@H](C(=O)O)c4cc(O)cc(O)c4-c4cc3ccc4O)[C@H](O)c3ccc(c(Cl)c3)Oc3cc2cc(c3O[C@@H]2O[C@H](CO)[C@@H](O)[C@H](O)[C@H]2O[C@H]2C[C@](C)(N)[C@H](O)[C@H](C)O2)Oc2ccc(cc2Cl)[C@H]1O` [vancomycin] the “susceptibility” value was “resistant”.
With gentamicin the “susceptibility” value was “resistant”.
For penicillin, the “susceptibility” value was “resistant”.

Same assay, conditions: disk 5 µg; nutrient agar seeded with K. aridum, one week at 28°C; zones contained a few resistant colonies
`CN(C)[C@@H]1C(O)=C(C(N)=O)C(=O)[C@@]2(O)C(O)=C3C(=O)c4c(O)ccc(Cl)c4[C@@](C)(O)[C@H]3C[C@@H]12` [Chlortetracycline] was tested, and the zones of inhibition was 18 mm.
For `CO[C@@H]1[C@@H](OC(N)=O)[C@@H](O)[C@H](Oc2ccc3c(O)c(NC(=O)c4ccc(O)c(CC=C(C)C)c4)c(=O)oc3c2C)OC1(C)C` [novobiocin], the zones of inhibition was 27-28 mm.
In the case of `CO[C@H]1/C=C/O[C@@]2(C)Oc3c(C)c(O)c4c(O)c(c(/C=N/N5CCN(C)CC5)c(O)c4c3C2=O)NC(=O)/C(C)=C\C=C\[C@H](C)[C@H](O)[C@@H](C)[C@@H](O)[C@@H](C)[C@H](OC(C)=O)[C@@H]1C` [rifampin], the zones of inhibition was 11-15 mm.
With `CN(C)[C@@H]1C(O)=C(C(N)=O)C(=O)[C@@]2(O)C(O)=C3C(=O)c4c(O)cccc4[C@@](C)(O)[C@H]3C[C@@H]12` [tetracycline] the zones of inhibition was 11-12 mm.
